Experiments:
L6-myotubes [1] = assay: Glucose uptake in differentiated L6-myotubes (Biological Example 2); type: cell-based; settings: read-out: Biological example 2 (GU)
In short: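 Uptake was quantified as radioactivity in 0.2 M NaOH lysates after a 10 min pulse of 50 nM ^3H-2-deoxyglucose. The pulse followed two agonist exposures at 1×10^−5 M final (isoprenaline or test compound): 1 h 40 min, then 20 min in glucose-free medium after washing. L6 myotubes had been starved overnight in medium with 0.5% fatty-acid-free BSA.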

L6-myotubes [2] = assay: Measurement of intracellular cAMP levels in differentiated L6-myotubes (Biological Example 3); type: cell-based; settings: for Emax at 10 µM: 0.25 h
In short: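 Intracellular cAMP quantified by AlphaScreen after ethanol extraction and lysis of L6 myotubes. Cells were serum-starved overnight, then exposed for 15 min to compound (final 1×10^−5 M) or isoprenaline in IBMX-containing (1 mM) HBSS buffer, pH 7.4.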

[3] = glucose uptake in differentiated L6-myotubes, compound at 10 μM, activity relative to isoproterenol at 10 μM
[4] = intracellular cAMP in differentiated L6-myotubes, compound at 10 μM, activity relative to isoproterenol at 10 μM
[5] = glucose uptake, compound at 10 μM relative to isoproterenol at 10 μM
[6] = intracellular cAMP, compound at 10 μM relative to isoproterenol at 10 μM

SMILES	Emax at 10 µM (L6-myotubes [1]; [3])	Emax at 10 µM (L6-myotubes [2]; [4])	Emax at 10 µM (L6-myotubes [1]; [5])	Emax at 10 µM (L6-myotubes [2]; [6])	Biological example 3 (CAMP) (L6-myotubes [2]; [4])
CC(C)(C[C@H]1CC[C@@H](NS(C)(=O)=O)CC1)NC[C@H](O)c1cccc(C#N)n1 [Compound 422, 6-[(S)-2-{1,1-dimethyl-2-[(1s,4R)-4-(mesylamino)cyclohexyl]ethylamino}-1-hydroxyethyl]-2-pyridinecarbonitrile]	50 to 75%	< 25%	–	–	–
CC(=O)N[C@H]1CC[C@H](C[C@@H]2CC[C@H]([C@@H](O)c3cccc(F)c3)N2)CC1 [Compound 486]	50 to 75%	< 25%	–	–	–
CO[C@H]1CC[C@H](CCCNC[C@H](O)c2cccc(F)c2)CC1 [Compound 259, (R)-1-(m-fluorophenyl)-2-{3-[(1r,4S)-4-methoxycyclohexyl]propylamino}-1-ethanol]	25 to 50%	< 25%	–	–	–
CC1(C)C[C@@H]([C@@H](O)c2cccc(F)c2)N1 [Compound 199]	25 to 50%	< 25%	–	–	–
CC(=O)N[C@H]1CC[C@H](C[C@@H]2CC[C@H]([C@H](O)c3cccc(F)c3)N2)CC1 [Compound 485]	50 to 75%	< 25%	–	–	–
O[C@@H](c1cncc(F)c1)C12CCC(COCc3ccc(OC(F)(F)F)cc3)(CC1)N2 [Compound 489, (S)-(5-fluoro-3-pyridyl)(4-{[(p-trifluoromethoxyphenyl)methoxy]methyl}-7-azabicyclo[[2.2.1]]hept-1-yl)methanol]	< 25%	< 25%	–	–	–
CC1(C)CC[C@H]([C@@H](O)c2ccccc2F)N1 [Compound 174, (S)-[(R)-5,5-dimethyl-2-pyrrolidinyl](o-fluorophenyl)methanol]	–	–	< 25%	< 25%	–
CCCCNCC(O)c1cc(Cl)c(N)c(C(F)(F)F)c1 (stereo not drawn) [Compound 32, 1-[4-amino-3-chloro-5-(trifluoromethyl)phenyl] -2-(butylamino)-1-ethanol]	–	–	> 75%	25 to 50%	–
CCC[C@H]1CCC[C@H]([C@@H](O)c2cccc(O)c2)N1 [Compound 155]	–	–	< 25%	< 25%	–
CC(C)(NC[C@H](O)c1cncc(F)c1)[C@H]1CC[C@@H](O)CC1 [Compound 286, (R)-1-(5-fluoro-3-pyridyl)-2-{1-methyl-1-[(1s,4S)-4-hydroxycyclohexyl]ethylamino}-1-ethanol]	25 to 50%	< 25%	–	–	–
CC1(C)CC[C@H]([C@H](O)c2cccc(O)c2)N1 [Compound 112, m-{(R)-[(R)-5,5-dimethyl-2-pyrrolidinyl] hydroxymethyl}phenol]	–	–	> 75%	< 25%	–
CC(C)(CC[C@H]1CC[C@@H](C(=O)O)CC1)NC[C@H](O)c1cncc(F)c1 [Compound 347, (1S,4s)-4-{3-[(R)-2-(5-fluoro-3-pyridyl)-2-hydroxyethylamino]-3-methylbutyl} cyclohexanecarboxylic acid]	> 75%	< 25%	–	–	–
COc1ccc(CC23CCC([C@H](O)c4cccc(F)c4)(CC2)N3)cc1 [Compound 401, (R)-(m-fluorophenyl){4-[(p-methoxyphenyl)methyl]-7-azabicyclo[[2.2.1]]hept-1-yl}methanol]	> 75%	< 25%	–	–	–
CC12CCC([C@@H](O)c3cncc(F)c3)(CC1)N2 [Compound 184, (S)-(5-fluoro-3-pyridyl)(4-methyl-7-azabicyclo[[2.2.1]]hept-1-yl)methanol]	–	–	50 to 75%	< 25%	–
CO[C@H]1CC[C@H](CNC[C@H](O)c2cccc(F)c2)CC1 [Compound 228, (R)-1-(m-fluorophenyl)-2-({[(1r,4R)-4-methoxycyclohexyl]methyl}amino)-1-ethanol]	50 to 75%	< 25%	–	–	–
CC(=O)N[C@H]1CC[C@H](CNC[C@H](O)c2cncc(F)c2)CC1 [Compound 309]	50 to 75%	< 25%	–	–	–
O[C@@H](c1cncc(F)c1)C12CCC(COCc3ccc(F)cc3)(CC1)N2 [Compound 442, (S)-(4-{[(p-fluorophenyl)methoxy]methyl}-7-azabicyclo[[2.2.1]]hept-1-yl)(5-fluoro-3-pyridyl)methanol]	25 to 50%	< 25%	–	–	–
CC(C)(NC[C@H](O)c1cncc(F)c1)[C@H]1CC[C@H](OCc2ccccc2)CC1 [Compound 281, (R)-1-(5-fluoro-3-pyridyl)-2-{1-methyl-1-[(1r,4R)-4-(benzyloxy)cyclohexyl]ethylamino}-1-ethanol]	50 to 75%	< 25%	–	–	–
CO[C@H]1CC[C@H](C(C)(C)NC[C@H](O)c2cncc(F)c2)CC1 [Compound 240, (R)-1-(5-fluoro-3-pyridyl)-2-{1-methyl-1-[(1r,4R)-4-methoxycyclohexyl]ethylamino}-1-ethanol]	> 75%	< 25%	–	–	–
CC(C)(C)NC[C@H](O)c1cccc(F)c1F [Compound 76, (R)-2-(tert-butylamino)-1-(2,3-difluorophenyl)-1-ethanol]	–	–	> 75%	25 to 50%	–

SMILES	Emax at 10 µM (L6-myotubes [1]; [3])	Emax at 10 µM (L6-myotubes [2]; [4])	Emax at 10 µM (L6-myotubes [1]; [5])	Emax at 10 µM (L6-myotubes [2]; [6])	Biological example 3 (CAMP) (L6-myotubes [2]; [4])
CC1(C)CC[C@H]([C@H](O)c2cccc(F)c2)N1 [Compound 110]	–	–	> 75%	< 25%	–
CCCC(C)NCC(O)c1cc(Cl)c(N)c(Cl)c1 (stereo not drawn) [Compound 22, 1-(4-amino-3,5-dichlorophenyl)-2-(1-methylbutylamino)-1-ethanol]	–	–	> 75%	50 to 75%	–
CC1(C)C[C@H]([C@@H](O)c2cncc(F)c2)N1 [Compound 217]	25 to 50%	< 25%	–	–	–
O=C(N[C@H]1CC[C@@H](CNC[C@H](O)c2cncc(F)c2)CC1)c1ccccc1 [Compound 318]	50 to 75%	< 25%	–	–	–
COc1ccc(CCC23CCC([C@H](O)c4cccc(F)c4)(CC2)N3)cc1 [Compound 540, (R)-(m-fluorophenyl){4-[2-(p-methoxyphenyl)ethyl]-7-azabicyclo[[2.2.1]]hept-1-yl}methanol]	50 to 75%	25 to 50%	–	–	–
CS(=O)(=O)Nc1cccc(CC23CCC([C@@H](O)c4cccc(F)c4)(CC2)N3)c1 [Compound 514, (S)-(m-fluorophenyl)(4-{[m-(mesylamino)phenyl]methyl}-7-azabicyclo[[2.2.1]]hept-1-yl)methanol]	50 to 75%	< 25%	–	–	–
CCC[C@@H]1CCC[C@H]([C@H](O)c2ccc(F)cc2)N1 [Compound 94]	–	–	50 to 75%	< 25%	–
CC1(C)C[C@H]([C@@H](O)c2ccccc2F)N1 [Compound 203, (S)-[(R)-4,4-dimethyl-2-azetidinyl](o-fluorophenyl)methanol]	25 to 50%	< 25%	–	–	–
CC(C)(C[C@H]1CC[C@H](O)CC1)NC[C@H](O)c1cncc(F)c1 [Compound 299, (R)-2-{1,1-dimethyl-2-[(1r,4R)-4-hydroxycyclohexyl]ethylamino}-1-(5-fluoro-3-pyridyl)-1-ethanol]	50 to 75%	< 25%	–	–	–
CC(C)(C[C@H]1CC[C@H](C(=O)O)CC1)NC[C@H](O)c1cncc(F)c1 [Compound 356, (1R,4r)-4-{2-[(R)-2-(5-fluoro-3-pyridyl)-2-hydroxyethylamino]-2-methylpropyl} cyclohexanecarboxylic acid]	< 25%	< 25%	–	–	–
COc1ccc(C[C@@]2(C)CC[C@H]([C@H](O)c3cccc(F)c3)N2)cc1 [Compound 366, (R)-{(2R,5R)-5-[(p-methoxyphenyl)methyl]-5-methyl-2-pyrrolidinyl}(m-fluorophenyl)methanol]	> 75%	25 to 50%	–	–	–
O[C@@H](c1cccc(F)c1)C12CCC(CCc3cccnc3)(CC1)N2 [Compound 445, (S)-(m-fluorophenyl){4-[2-(3-pyridyl)ethyl]-7-azabicyclo[[2.2.1]]hept-1-yl}methanol]	> 75%	–	–	–	− (if it less than 25% it is denoted with −)
O[C@@H](CNCC[C@H]1CC[C@H](O)CC1)c1cccc(F)c1 [Compound 298, (R)-1-(m-fluorophenyl)-2-{2-[(1r,4R)-4-hydroxycyclohexyl]ethylamino}-1-ethanol]	25 to 50%	< 25%	–	–	–
CS(=O)(=O)N(Cc1ccccc1)CC12CCC([C@@H](O)c3cccc(F)c3)(CC1)N2 [Compound 538, (S)-(4-{[(benzyl)-N-mesylamino]methyl}-7-azabicyclo[[2.2.1]]hept-1-yl)(m-fluorophenyl)methanol]	50 to 75%	< 25%	–	–	–
CS(=O)(=O)N[C@H]1CC[C@H](CNC[C@H](O)c2cccc(F)c2)CC1 [Compound 311]	50 to 75%	< 25%	–	–	–
CC(=O)N[C@H]1CC[C@@H](CC(C)(C)NC[C@H](O)c2cccc(F)c2)CC1 [Compound 452]	> 75%	< 25%	–	–	–
CCCCNCC(O)c1ccc(Cl)c(O)c1 (stereo not drawn) [Compound 34, 2-(butylamino)-1-(4-chloro-3-hydroxyphenyl)-1-ethanol]	–	–	> 75%	< 25%	–
CC(C)(NC[C@H](O)c1cncc(F)c1)[C@H]1CC[C@H](OCC(=O)O)CC1 [Compound 419]	50 to 75%	< 25%	–	–	–
CC(C)(NC[C@H](O)c1cccc(F)c1)[C@H]1CC[C@@H](OCc2ccccc2)CC1 [Compound 280, (R)-1-(m-fluorophenyl)-2-{1-methyl-1-[(1s,4S)-4-(benzyloxy)cyclohexyl]ethylamino}-1-ethanol]	> 75%	< 25%	–	–	–
